# From patent publication US20260265538A1, “Aqueous Industrial Product Stabilized Against Microbial Contamination” (Thor GmbH, priority 2023, published 2026)
# Test system: Bacteria mixture 1 (Pseudomonas genus)
# Assay: Repetitive stress test of paints with bacteria mixture 1, semiquantitative evaluation (examples 2 and 3)
# Type: cell-based
# Details: table 3
# Excerpt: Paints 1 to 3 were mixed and homogenized with various concentrations of the guanidinium salts to be tested.
# The batches obtained of the paint thus prepared were inoculated repeatedly with a mixture of different wild-type bacterial strains that are of practical relevance with regard to contamination. These bacteria had previously been isolated from commercial emulsion paints containing conventional preservatives (bacteria mixture 1, Pseudomonas genus), which are microbially contaminated in practice, and commercial so-called preservative-free alkaline emulsion paints (bacteria mixture 2, alkaliphilic bacteria of the Nesterenkonia & Alkalibacterium genus), which are microbially contaminated in practice.
# • Pseudomonas spp. (Pseudomonas oleovorans group) DSM 33933 • Pseudomonas aeruginosa DSM 33935 • Pseudomonas oleovorans DSM 33936 • Pseudomonas putida DSM 33937 • Pseudomonas aeruginosa DSM 33938
# The inoculum was added to the respective sample in each inoculation at 2% (v/w) as a fresh cell suspension in a physiological saline solution (0.9% NaCl). The cell count of the added inoculum in example 1 was 10^5/ml, in examples 2 to 5 10^9/ml, and in example 6 10^6/ml, each in equal portions consisting of the individual bacterial strains. The cell suspension was produced by growing the individual bacteria at 30° C. for 24 h in liquid culture on a shaker. The medium used to grow the bacteria from bacteria mixture 1 was Müller-Hinton liquid medium. Bacteria from bacteria mixture 2 were grown in Müller-Hinton liquid medium that had been adjusted to pH 9.5-9.7 with an alkaline buffer solution beforehand. After growing, the individual liquid cultures were centrifuged, and the cells were resuspended in physiological saline solution. In order to adjust the mixture to the desired cell count, the individual bacteria suspensions, if necessary, were diluted accordingly before being combined with saline solution. The cell count of the inoculum was determined in each case by chamber counting.
# In examples 2 to 6, what is called a repetitive stress test with bacteria was conducted by inoculating the samples at particular time intervals repeatedly with a bacteria suspension having a cell count of 10^9/ml (2% v/w) and monitoring the evolution of the bacteria by a semiquantitative evaluation method. After each inoculation, the samples were incubated at 30° C. for 6 days (bacteria mixture 1 and 3) or 7 and 14 days (bacteria mixture 2), and after these periods bacterial infestation was evaluated semiquantitatively in each case. For this purpose, an aliquot was taken from each sample after homogenization using a sterile plastic inoculation loop (10 μl) and streaked evenly on agar plates (bacteria mixture 1 and 3 on tryptic soy agar, bacteria mixture 2 on DSMZ 31 alkaline nutrient agar). The streaked agar plates were then incubated at 30° C. for 48 h (bacteria mixture 1 and 3) or 5 to 7 days (bacteria mixture 2). After incubation, the bacterial colonies grown on the agar plates were visually evaluated and quantified according to the following scheme:
# A total of 3 inoculation cycles was performed in each repetitive stress test.
# Inoculation 2% (w/v) with Bacteria Mixture 1, 10^9 CFU/ml
# 2% (w/v) Inoculation with Bacteria Mixture 1, […]
smiles,measurement,setting,value
N=C(N)N.N=C(N)N.O=C(O)O [guanidine carbonate],Stabilization of the paint against microbial infestation,"paint 1, pH of pH 9.4, addition of 0.15% by weight",distinct stabilization
same,Stabilization of the paint against microbial infestation,"paint 2, pH of pH 9.1, addition of 0.175% by weight",distinct stabilization
